This passage reports IC50 results from US20220144812A1, “QUINOLINE DERIVATIVES AND THEIR USE FOR THE TREATMENT OF CANCER” (Epizyme, Inc., priority 2019, published 2022).

pIC50: −log10 of the molar value.

Type in all cases: cell-based
Test [1] relates to 647V cells. The test can be described thus: High throughput proliferation (HTP) assay. The following applies: Homo sapiens, 647-V, high throughput proliferation; read-out: CREBBP HTP IC50. The essentials:
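Exponentially growing 647V cells in DMEM with 15% FBS were treated in triplicate with increasing compound concentrations at 37° C, 5% CO2. Viable cell number was read by CellTiter-Glo luminescence on day 7; IC50 in micromolar.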

Test [2] concerns HT1197 bladder cell line. The test can be described thus: 7-day proliferation assay, HT1197. The note with it: Homo sapiens, 168 h; HT1197, 7 days, CellTiter-Glo. On the procedure: (§1) This example describes methods and materials for 7-day proliferation assay.
(§2) A total of 22 bladder cell lines were used (see table below). Cell lines were cultured in recommended growth media according to supplier.
(§3) Cells were in culture media at a density optimized for a 7-day culture in a final volume of 150 μL per well in white opaque 96-well plates. Cells were allowed to adhere for several hours (4-6 h) then compounds were added with HPD300 Digital Dispenser and placed into the incubator at 37° C., 5% CO2 for 7 days. After 7 days incubation, 100 μL of CellTiter-Glo® Luminescent Cell Viability Assay (Promega-G7573) reagents were added per well. After 20 minutes incubation luminescence was measured in plate reader. IC50 were calculated from a non-linear logarithmic growth curve.
(§4) IC50 values (nanomolar (nM)) are summarized in the table below, which depicts the inhibitory effect of certain compounds in bladder cell lines.

Test [3] relates to RT4 bladder cell line. The test can be described thus: 7-day proliferation assay, RT4. The note with it: 168 h; RT4, 7 days, CellTiter-Glo. On the procedure: as §1, §2, §3, §4
Test [4] concerns UBLC1 bladder cell line. The experiment in a line: 7-day proliferation assay, UBLC1. The following applies: 168 h; UBLC1, 7 days, CellTiter-Glo. The method, then:
as §1, §2, §3, §4

Test [5] deals with UM-UC-3 bladder cell line. The experiment in a line: 7-day proliferation assay, UM-UC-3. The note with it: Homo sapiens, UMUC3, 168 h; UM-UC-3, 7 days, CellTiter-Glo. On the procedure: as §1, §2, §3, §4
Test [6] has as its system CLS439 bladder cell line. The test can be described thus: 7-day proliferation assay, CLS439. The note with it: 168 h; CLS439, 7 days, CellTiter-Glo. The method, then: as §1, §2, §3, §4

For `CCn1ncc(CN(C)C(=O)c2cc(-c3ccc(NCCNC)c(C)n3)nc3ccc(Cl)cc23)c1C` [Compound 3, 6-chloro-N-[(1-ethyl-5-methyl-1H-pyrazol-4-yl)methyl]-N-methyl-2-(6-methyl-5-{[2-(methylamino)ethyl]amino}pyridin-2-yl)quinoline-4-carboxamide], the pIC50 is 7.57 in test [1]; 6.81 in test [2]; 6.80 in test [3]; 6.85 in test [4]; 6.10 in test [5]; 6.21 in test [6].

Turning to `CCn1ncc(CN(C)C(=O)c2cc(-c3ccc(NC4CN(C)C4)c(C)n3)nc3ccc(Cl)cc23)c1C` [Compound 480], the pIC50 in test [1] is 7.71; in test [2] it was 6.95; in test [3], 6.76; in test [4] it was 6.63; in test [5] it was 6.23; in test [6], 6.32.

Take `CCc1noc(CN(C)C(=O)c2cc(-c3ccc(NCCNC)c(C)n3)nc3ccc(Cl)cc23)c1C` [Compound 537]: the pIC50 is 7.30 in test [1]; 6.46 in test [2]; 6.46 in test [3]; 6.31 in test [4]; 5.86 in test [5]; 6.07 in test [6].

`CCc1ncc(CN(C)C(=O)c2cc(-c3ccc(NCCN(C)C)c(C)n3)nc3ccc(Cl)cc23)n1C` [Compound 577]: the pIC50 was 7.51 in test [1]; 6.63 in test [2]; 6.70 in test [3]; 6.37 in test [4]; 5.96 in test [5]; 6.34 in test [6].
